Reference: ChEMBL document CHEMBL1201862, “PubChem BioAssay data set” (2004)
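Where inhibition never reached the appropriate level, the endpoint shown equals the highest concentration tested. Otherwise, values were interpolated linearly from a five-concentration, 48-hour dose response in 96-well plates. GI50 marks 50% less growth.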 The source made the active and inactive calls. No stated cut-off is given here; in the data, active = GI50 up to about 1.1 µM and inactive = higher.

Assays:
Experiment in all cases: NCI tumour cell line growth inhibition, 48 h
IGROV-1 = system: IGROV-1
MDA-MB-231 = system: MDA-MB-231
MDA-N = system: MDA-N
M14 = system: M14
EKVX = system: EKVX
U-251 = system: U-251
HT-29 = system: HT-29
CCRF-CEM = system: CCRF-CEM
ACHN = system: ACHN
MDA-MB-435 = system: MDA-MB-435
PC-3 = system: PC-3
SK-MEL-2 = system: SK-MEL-2
K562 = system: K562
NCI-H23 = system: NCI-H23
SR = system: SR
RPMI-8226 = system: RPMI-8226
SK-MEL-5 = system: SK-MEL-5
Hs-578T = system: Hs-578T
BT-549 = system: BT-549

Structure (SMILES)	GI50 (IGROV-1)	GI50 (MDA-MB-231)	GI50 (MDA-N)	GI50 (M14)	GI50 (EKVX)	GI50 (U-251)	GI50 (HT-29)	GI50 (CCRF-CEM)	GI50 (ACHN)	GI50 (MDA-MB-435)	GI50 (PC-3)	GI50 (SK-MEL-2)	GI50 (K562)	GI50 (NCI-H23)	GI50 (SR)	GI50 (RPMI-8226)	GI50 (SK-MEL-5)	GI50 (Hs-578T)	GI50 (BT-549)
COC(=O)CNC(=O)CCSc1nnc(COc2ccc(Cl)cc2)n1-c1ccccc1	26.2 µM (inactive)	21 µM (inactive)	16.1 µM (inactive)	23.4 µM (inactive)	59.6 µM (inactive)	64.3 µM (inactive)	27.5 µM (inactive)	55.5 µM (inactive)	34.4 µM (inactive)	24.1 µM (inactive)	52 µM (inactive)	23.4 µM (inactive)	30.3 µM (inactive)	45.6 µM (inactive)	> 10 µM (inactive)				
CC(C)(/C=N/O)/[N+]([O-])=C/c1ccccc1	> 100 µM (inactive)	> 100 µM (inactive)	> 100 µM (inactive)	> 100 µM (inactive)	> 100 µM (inactive)	> 100 µM (inactive)	> 100 µM (inactive)		> 100 µM (inactive)	> 100 µM (inactive)	> 100 µM (inactive)	> 100 µM (inactive)		> 100 µM (inactive)		> 100 µM (inactive)	> 100 µM (inactive)	> 100 µM (inactive)	
O=C(c1ccc(Cl)cc1)N(C(=S)OC12CC3CC(CC(C3)C1)C2)c1ccccc1		29.4 µM (inactive)	49.5 µM (inactive)	34 µM (inactive)	26.6 µM (inactive)	30.2 µM (inactive)	32.3 µM (inactive)	16.3 µM (inactive)	34.8 µM (inactive)	43.8 µM (inactive)	34 µM (inactive)	30.1 µM (inactive)	29.8 µM (inactive)	35.6 µM (inactive)			32 µM (inactive)	39.9 µM (inactive)	43.2 µM (inactive)
CCSc1nc(N2CCOCC2)c2cn[nH]c2n1	9.64 µM (inactive)	> 100 µM (inactive)		> 100 µM (inactive)	> 100 µM (inactive)	> 100 µM (inactive)	> 100 µM (inactive)	60.5 µM (inactive)	31.7 µM (inactive)	41.8 µM (inactive)	22.1 µM (inactive)	41.5 µM (inactive)	> 100 µM (inactive)	48.1 µM (inactive)	56.1 µM (inactive)	37.5 µM (inactive)	50.6 µM (inactive)	33.9 µM (inactive)	82.2 µM (inactive)
O=C1C=C[C@@]23CC1C(O)C[C@H]2C=Cc1ccccc13 (some centres undefined)	> 100 µM (inactive)			> 100 µM (inactive)			> 100 µM (inactive)	> 100 µM (inactive)	> 100 µM (inactive)			> 100 µM (inactive)	50.2 µM (inactive)			> 100 µM (inactive)	> 100 µM (inactive)		
CC1(C)OC2CN(C(=O)OCc3ccccc3)C(CO)C2O1 (centres undefined)	> 100 µM (inactive)	> 100 µM (inactive)	> 100 µM (inactive)	> 100 µM (inactive)	> 100 µM (inactive)	> 100 µM (inactive)	> 100 µM (inactive)		> 100 µM (inactive)	> 100 µM (inactive)	> 100 µM (inactive)	> 100 µM (inactive)	> 100 µM (inactive)	> 100 µM (inactive)		> 100 µM (inactive)	> 100 µM (inactive)	> 100 µM (inactive)	> 100 µM (inactive)
COc1ccc(C2S/C(=C\c3cccc(OC)c3)C(=O)N2NC(=O)Cc2ccccc2)cc1 (centres undefined)	> 100 µM (inactive)			> 100 µM (inactive)		> 100 µM (inactive)	> 100 µM (inactive)	> 100 µM (inactive)	> 100 µM (inactive)			> 100 µM (inactive)	> 100 µM (inactive)	> 100 µM (inactive)	> 100 µM (inactive)	> 100 µM (inactive)	> 100 µM (inactive)		
COc1ccc(/C=C/c2cc(O)cc(OC)c2)cc1	> 100 µM (inactive)	27.8 µM (inactive)		> 100 µM (inactive)	55.3 µM (inactive)	28.7 µM (inactive)	> 100 µM (inactive)		19.8 µM (inactive)	68.4 µM (inactive)	68.5 µM (inactive)	> 100 µM (inactive)	67.9 µM (inactive)	> 100 µM (inactive)	> 100 µM (inactive)	22.3 µM (inactive)	> 100 µM (inactive)	> 100 µM (inactive)	22.9 µM (inactive)
N#C/C(C(=O)Nc1ccccc1)=C(/N)N1CCOCC1	> 100 µM (inactive)		> 100 µM (inactive)	> 100 µM (inactive)	> 100 µM (inactive)	> 100 µM (inactive)		> 100 µM (inactive)	> 100 µM (inactive)	> 100 µM (inactive)	> 100 µM (inactive)	> 100 µM (inactive)	> 100 µM (inactive)	> 100 µM (inactive)	> 100 µM (inactive)	> 100 µM (inactive)	> 100 µM (inactive)		> 100 µM (inactive)
Cc1ccc(C2=Nc3c(c(C)nn3-c3ccccc3)N=C(C(=O)O)C2)cc1	> 10 µM (inactive)	> 10 µM (inactive)	> 10 µM (inactive)	> 10 µM (inactive)	> 10 µM (inactive)	> 10 µM (inactive)	> 10 µM (inactive)	> 10 µM (inactive)	> 10 µM (inactive)	> 10 µM (inactive)	> 10 µM (inactive)	> 10 µM (inactive)	> 10 µM (inactive)	> 10 µM (inactive)			> 10 µM (inactive)	> 10 µM (inactive)	> 10 µM (inactive)
CC1(C)C=C(/C=N/Nc2ccc(Br)cc2)C(C#N)=C(O)C1(C#N)C#N	81.8 µM (inactive)	39.5 µM (inactive)	42.2 µM (inactive)	26.6 µM (inactive)	54.3 µM (inactive)		40.8 µM (inactive)	35.8 µM (inactive)	33.3 µM (inactive)	39.7 µM (inactive)	21.2 µM (inactive)		17.7 µM (inactive)	46 µM (inactive)	26.4 µM (inactive)	38.5 µM (inactive)	> 100 µM (inactive)	63.8 µM (inactive)	
O=[N+]([O-])c1ccccc1S(=O)(=O)c1cc(Cl)cc2c1NCCC2	48.3 µM (inactive)	34.1 µM (inactive)		63 µM (inactive)	> 100 µM (inactive)		70.3 µM (inactive)	36.1 µM (inactive)	56.6 µM (inactive)	35.5 µM (inactive)	52.1 µM (inactive)	43.6 µM (inactive)	37.5 µM (inactive)		42.8 µM (inactive)	44.8 µM (inactive)	29.7 µM (inactive)	40.1 µM (inactive)	26.8 µM (inactive)
C[Si](C)(C)CCOCN(C(=O)C1=CCC2(CC1)OCCO2)c1ccccc1I	24.6 µM (inactive)	22.8 µM (inactive)	20.6 µM (inactive)	18.2 µM (inactive)	14.8 µM (inactive)	24.9 µM (inactive)	34.3 µM (inactive)	25.4 µM (inactive)	22.6 µM (inactive)	13.9 µM (inactive)	12.6 µM (inactive)	17.5 µM (inactive)	8.02 µM (inactive)	18.6 µM (inactive)	15.8 µM (inactive)	11.9 µM (inactive)	11.3 µM (inactive)	15.8 µM (inactive)	
COc1ccc(N2CC(=O)N(C(=O)COc3ccc(OCC(=O)N4C(=O)CN(c5ccc(OC)cc5)C4=S)cc3)C2=S)cc1	15.4 µM (inactive)	> 100 µM (inactive)	> 100 µM (inactive)	> 100 µM (inactive)	81.1 µM (inactive)	> 100 µM (inactive)	57.9 µM (inactive)		> 100 µM (inactive)	> 100 µM (inactive)	> 100 µM (inactive)	> 100 µM (inactive)	38.8 µM (inactive)	88.1 µM (inactive)		87.5 µM (inactive)	45.6 µM (inactive)		> 100 µM (inactive)
ON=C(CC(O)(C(F)(F)Cl)C(F)(F)Cl)CC(O)(C(F)(F)Cl)C(F)(F)Cl	6.37 µM (inactive)				5.04 µM (inactive)	3.46 µM (inactive)	9.14 µM (inactive)	5.56 µM (inactive)	3.66 µM (inactive)	4.07 µM (inactive)	3.33 µM (inactive)	3.03 µM (inactive)	> 10 µM (inactive)	2.56 µM (inactive)	4.58 µM (inactive)	2.7 µM (inactive)	4.2 µM (inactive)	3.52 µM (inactive)	
CSC1=N/C(=C\c2ccc(Cl)cc2)C(=O)N1CN1CCOCC1	27.4 µM (inactive)	43 µM (inactive)	47.8 µM (inactive)	39 µM (inactive)	53.5 µM (inactive)	27 µM (inactive)	27.5 µM (inactive)	30.8 µM (inactive)	31.3 µM (inactive)	58.3 µM (inactive)	38.9 µM (inactive)	52.8 µM (inactive)	33 µM (inactive)	66.8 µM (inactive)	0.0791 µM (active)	19.3 µM (inactive)	32.6 µM (inactive)	33 µM (inactive)	
CCCCCCCCOCC(COC(=O)CCCCCCC)OC(=O)CCCCCCC (centres undefined)	> 100 µM (inactive)			> 100 µM (inactive)		> 100 µM (inactive)	> 100 µM (inactive)	57 µM (inactive)	> 100 µM (inactive)				> 100 µM (inactive)	> 100 µM (inactive)	53 µM (inactive)	> 100 µM (inactive)	> 100 µM (inactive)		
O=C1CSC2(CCN(CCCN3c4ccccc4Sc4ccc(Cl)cc43)CC2)N1	7.78 µM (inactive)	7.06 µM (inactive)	11.5 µM (inactive)	6.81 µM (inactive)	9.31 µM (inactive)	8.51 µM (inactive)	3.53 µM (inactive)		11.6 µM (inactive)	11.4 µM (inactive)	5.37 µM (inactive)	16.2 µM (inactive)	3.79 µM (inactive)	9.46 µM (inactive)		6.05 µM (inactive)	11 µM (inactive)	10.4 µM (inactive)	12.1 µM (inactive)
